Measurements: US20260217828A1, “IMMUNE CHECKPOINT BLOCKADE THERAPY FOR TREATING STAPHYLOCOCCUS AUREUS INFECTIONS” (priority 2023, published 2026)

System: bioluminescent MRSA (USA300 LAC::lux)
Experiment: Transtibial implant-associated osteomyelitis in C57BL/6 mice, treated with sabatolimab or saline placebo
Format: in vivo, Staphylococcus aureus
Details: vs saline placebo
Description: (FIG. 7A) Schematic illustration of the experimental design. 8-week-old C57BL/6 mice were subjected to transtibial implant-associated osteomyelitis using bioluminescent MRSA (USA300 LAC::lux) and treated with sabatolimab or a saline placebo control. The concentration of anti-TIM-3 mAb used in the study is also outlined.
Similar assays were carried out to examine the efficacy trend of immune checkpoint blockade drug Sabatolimab (anti-TIM-3) in reducing S. aureus burden due to implant-associated osteomyelitis.
Briefly, 8-week-old C57BL/6 mice were subjected to transtibial implant-associated osteomyelitis using bioluminescent MRSA (USA300 LAC::lux). The mise were then treated with sabatolimab or a saline placebo control. The concentration of anti-TIM-3 mAb used in the study was also outlined in FIG. 7A.

## sabatolimab: immune checkpoint blockade drug Sabatolimab (anti-TIM-3)
8-week-old C57BL/6 mice, MRSA USA300 LAC::lux, n=9-10, ANOVA p<0.05
  in vivo S. aureus growth (longitudinal BLI): significantly decreased
C57BL/6 mice, day 14 post-surgery, n=9-10, t-test p<0.05
  disease severity by terminal ex vivo CFU on the tibia and internal organs (heart, liver, kidneys, and spleen): lower disease severity
